Experimental findings from patent publication US20260265238A1, “COMPOUNDS AND PHARMACEUTICAL COMPOSITIONS THAT DEGRADE SWI/SNF-RELATED MATRIX-ASSOCIATED ACTIN-DEPENDENT REGULATOR OF CHROMATIN SUBFAMILY A” (Plexium, Inc., priority 2023, published 2026) are described below.

For experiment [1], the target named is T1, SMARCA4-HiBiT HeLa cells (protein which is expressed from the SMARCA4 gene) (Homo sapiens, UniProt P51532).
T1 construct: protein which is expressed from the SMARCA2 and SMARCA4 genes; host or cells: HeLa (SMARCA4-HiBiT engineered line)
T1 sequence (P51532 whole entry): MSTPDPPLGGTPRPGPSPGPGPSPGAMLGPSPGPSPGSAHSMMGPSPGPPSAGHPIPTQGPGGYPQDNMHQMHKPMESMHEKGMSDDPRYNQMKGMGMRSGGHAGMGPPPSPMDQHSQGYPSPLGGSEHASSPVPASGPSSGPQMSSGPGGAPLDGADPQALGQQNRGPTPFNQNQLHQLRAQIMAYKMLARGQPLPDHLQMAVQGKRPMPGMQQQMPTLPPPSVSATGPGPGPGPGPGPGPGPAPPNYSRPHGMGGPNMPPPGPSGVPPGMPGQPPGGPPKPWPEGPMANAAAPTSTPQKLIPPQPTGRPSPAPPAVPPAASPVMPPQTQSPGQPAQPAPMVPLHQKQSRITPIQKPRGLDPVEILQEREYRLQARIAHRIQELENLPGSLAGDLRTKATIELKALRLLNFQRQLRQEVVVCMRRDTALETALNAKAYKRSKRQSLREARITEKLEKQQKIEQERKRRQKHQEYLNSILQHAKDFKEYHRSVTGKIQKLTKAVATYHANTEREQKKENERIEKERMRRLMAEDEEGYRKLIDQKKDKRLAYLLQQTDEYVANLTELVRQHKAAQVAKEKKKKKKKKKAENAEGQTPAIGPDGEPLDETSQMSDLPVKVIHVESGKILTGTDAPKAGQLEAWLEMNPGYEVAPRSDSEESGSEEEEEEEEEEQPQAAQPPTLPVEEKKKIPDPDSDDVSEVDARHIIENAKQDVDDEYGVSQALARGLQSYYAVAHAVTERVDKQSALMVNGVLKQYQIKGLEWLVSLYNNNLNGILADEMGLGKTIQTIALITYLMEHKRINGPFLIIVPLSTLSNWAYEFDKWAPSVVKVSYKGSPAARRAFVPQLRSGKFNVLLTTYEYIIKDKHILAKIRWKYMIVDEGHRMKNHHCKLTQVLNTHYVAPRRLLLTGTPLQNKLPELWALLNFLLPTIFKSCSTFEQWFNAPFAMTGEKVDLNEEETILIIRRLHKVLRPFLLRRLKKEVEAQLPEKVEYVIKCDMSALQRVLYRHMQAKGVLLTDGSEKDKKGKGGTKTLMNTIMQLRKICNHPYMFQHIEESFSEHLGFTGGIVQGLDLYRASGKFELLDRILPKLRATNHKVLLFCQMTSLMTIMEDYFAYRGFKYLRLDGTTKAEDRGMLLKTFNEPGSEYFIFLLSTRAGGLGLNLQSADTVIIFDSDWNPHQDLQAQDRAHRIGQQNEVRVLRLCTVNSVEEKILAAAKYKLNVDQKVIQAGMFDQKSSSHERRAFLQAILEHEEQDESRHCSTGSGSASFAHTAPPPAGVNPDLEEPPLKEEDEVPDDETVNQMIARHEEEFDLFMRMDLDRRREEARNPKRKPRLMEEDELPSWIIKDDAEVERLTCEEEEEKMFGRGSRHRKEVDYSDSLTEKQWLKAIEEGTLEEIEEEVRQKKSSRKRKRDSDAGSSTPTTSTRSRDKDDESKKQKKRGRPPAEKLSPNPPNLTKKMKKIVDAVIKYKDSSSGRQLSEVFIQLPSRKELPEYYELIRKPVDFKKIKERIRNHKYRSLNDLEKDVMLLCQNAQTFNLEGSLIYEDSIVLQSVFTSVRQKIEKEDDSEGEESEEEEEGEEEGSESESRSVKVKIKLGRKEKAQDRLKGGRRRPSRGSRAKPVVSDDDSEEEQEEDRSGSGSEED
Put plainly: SMARCA4 degradation assay (HiBiT-fusion HeLa cell line, 24 h, luminescence). It counts as cell-based. The procedure, abridged:
(§1)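 SMARCA2- or SMARCA4-HiBiT HeLa cells seeded overnight at 37° C, then given compound as a 10-point dilution (typically 10 μM to 300 pM) for 24 h at 37° C. Protein level read by HiBiT lytic detection luminescence; DC50 from dose-response curves; degradation also scored at 1 μM.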

Experiment [2] concerns the target T2, SMARCA2-HiBiT HeLa cells (protein which is expressed from the SMARCA2 gene) (Homo sapiens, UniProt P51531).
T2 construct: protein which is expressed from the SMARCA2 and SMARCA4 genes; host or cells: HeLa (SMARCA2-HiBiT engineered line)
Put plainly: SMARCA2 degradation assay (HiBiT-fusion HeLa cell line, 24 h, luminescence). It counts as cell-based. The procedure, abridged:
as §1
(In general: With HiBiT, luminescence reflects the tagged protein that the partner subunit can reach.)

As a reminder, the DC50 is the concentration at which degradation of the target reaches its halfway point. Low values mean a more potent degrader, high ones a less potent degrader. Usually inhibition stands for the change of the read-out against control, counted positive when it falls. Read a high inhibition as strong suppression.

T2 sequence (P51531 whole entry): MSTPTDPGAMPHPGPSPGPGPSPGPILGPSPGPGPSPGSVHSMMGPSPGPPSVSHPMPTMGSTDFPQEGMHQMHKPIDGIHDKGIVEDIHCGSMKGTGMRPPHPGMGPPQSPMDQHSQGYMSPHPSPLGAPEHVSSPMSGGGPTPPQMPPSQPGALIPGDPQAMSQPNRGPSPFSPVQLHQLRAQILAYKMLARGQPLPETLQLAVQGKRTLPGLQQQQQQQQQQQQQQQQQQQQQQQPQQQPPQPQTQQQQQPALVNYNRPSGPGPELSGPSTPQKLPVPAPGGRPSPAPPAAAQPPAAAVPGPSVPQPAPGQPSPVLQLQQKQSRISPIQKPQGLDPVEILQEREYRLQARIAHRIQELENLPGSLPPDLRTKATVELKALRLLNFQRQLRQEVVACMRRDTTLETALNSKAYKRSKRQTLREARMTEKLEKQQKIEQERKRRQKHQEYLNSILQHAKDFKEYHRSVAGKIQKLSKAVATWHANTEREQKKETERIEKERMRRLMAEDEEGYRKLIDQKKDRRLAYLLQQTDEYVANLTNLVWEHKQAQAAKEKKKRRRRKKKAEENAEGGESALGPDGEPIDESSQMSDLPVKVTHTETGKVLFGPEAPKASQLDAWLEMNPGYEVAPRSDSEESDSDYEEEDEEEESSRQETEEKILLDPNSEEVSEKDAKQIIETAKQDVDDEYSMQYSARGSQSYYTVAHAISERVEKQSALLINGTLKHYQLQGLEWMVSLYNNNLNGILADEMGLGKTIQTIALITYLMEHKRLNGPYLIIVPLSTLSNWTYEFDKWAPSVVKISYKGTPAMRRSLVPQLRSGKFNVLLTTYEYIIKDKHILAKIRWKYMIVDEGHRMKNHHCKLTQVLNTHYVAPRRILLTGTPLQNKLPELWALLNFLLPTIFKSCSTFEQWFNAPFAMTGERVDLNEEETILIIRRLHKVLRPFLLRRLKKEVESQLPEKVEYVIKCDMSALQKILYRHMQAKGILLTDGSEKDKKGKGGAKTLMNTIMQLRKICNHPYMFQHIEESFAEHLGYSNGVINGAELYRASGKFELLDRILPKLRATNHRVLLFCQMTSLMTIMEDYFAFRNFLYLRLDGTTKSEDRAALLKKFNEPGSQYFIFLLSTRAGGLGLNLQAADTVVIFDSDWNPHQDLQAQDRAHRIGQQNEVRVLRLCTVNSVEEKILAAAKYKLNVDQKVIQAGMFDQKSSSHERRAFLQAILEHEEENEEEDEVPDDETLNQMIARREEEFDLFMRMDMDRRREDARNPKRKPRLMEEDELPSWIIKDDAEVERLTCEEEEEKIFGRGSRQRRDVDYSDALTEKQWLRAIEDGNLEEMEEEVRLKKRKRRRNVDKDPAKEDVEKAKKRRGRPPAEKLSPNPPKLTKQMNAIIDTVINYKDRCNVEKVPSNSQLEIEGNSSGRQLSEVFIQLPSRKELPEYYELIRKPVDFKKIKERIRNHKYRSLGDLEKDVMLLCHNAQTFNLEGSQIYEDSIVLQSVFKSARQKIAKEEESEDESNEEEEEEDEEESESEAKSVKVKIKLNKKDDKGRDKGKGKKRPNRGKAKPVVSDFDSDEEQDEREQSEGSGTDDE

For `Nc1nnc(-c2ccccc2O)cc1N1CCCN(c2ccnc(C#CCn3ccnn3)n2)CC1` [Compound P-144, 2-(5-(4-(2-(3-(1H-1,2,3-triazol-1-yl)prop-1-yn-1-yl)pyrimidin-4-yl)-1,4-diazepan-1-yl)-6-aminopyridazin-3-yl)phenol], in experiment [1], the DC50 lay in the range of 50 to 500 nM and the inhibition at 1 µM is 30 to 70%. Also, in experiment [2], the DC50 was in the range of 50 to 500 nM and the “SMARCA2 % Degradation @ 1 μM” value is listed as “+++ (+++=>70%)”.
In the case of `C/C=C/c1nccc(N2CCCN(c3cc(-c4ccccc4O)nnc3N)CC2)n1` [Compound P-158, o-(6-amino-5-{4-[2-(1-propenyl)-4-pyrimidinyl]-1,4-diazepan-1-yl}-3-pyridazinyl)phenol], in experiment [1], the 50% degradation concentration (DC50) was 50 to 500 nM and the inhibition at 1 µM was 30 to 70%. Further, in experiment [2], the 50% degradation concentration (DC50) was 50 to 500 nM and the “SMARCA2 % Degradation @ 1 μM” value is “??”.
For the compound `Nc1nnc(-c2ccccc2O)cc1N1CC2CCC(C1)N2c1ccnc(C#CCn2cccn2)n1` [Compound P-133, 2-(5-(8-(2-(3-(1H-pyrazol-1-yl)prop-1-yn-1-yl)pyrimidin-4-yl)-3,8-diazabicyclo[3.2.1]octan-3-yl)-6-aminopyridazin-3-yl)phenol], in experiment [1], the DC50 is 50 to 500 nM and the inhibition at 1 µM was in the range of 30 to 70%. In experiment [2], the DC50 was in the range of 50 to 500 nM and the “SMARCA2 % Degradation @ 1 μM” value was “++ (++=30-70%)”.
Regarding `CC1(C)CN(c2ccnc(C#CCNC(=O)c3cc4ncccn4n3)n2)CCN1c1cc(-c2ccccc2O)nnc1N` [Compound P-83, N-(3-(4-(4-(3-amino-6-(2-hydroxyphenyl)pyridazin-4-yl)-3,3-dimethylpiperazin-1-yl)pyrimidin-2-yl)prop-2-yn-1-yl)pyrazolo[1,5-a]pyrimidine-2-carboxamide], in experiment [1], the DC50 was 50 to 500 nM and the inhibition at 1 µM is less than 30%. Further, in experiment [2], the DC50 was 500 to 5000 nM and the “SMARCA2 % Degradation @ 1 μM” value is on record as “+ (+=<30%)”.
Taken in the same sequence, the figures for `Nc1nnc(-c2ccccc2O)cc1N1CCCN(c2ccnc(C#CCN3C[C@H]4C[C@@H]3CO4)n2)CC1` [Compound P-376, 0-(5-{4-[2-(3-{(1R,4R)-2-oxa-5-azabicyclo[2.2.1]hept-5-y1}-1-propynyl)-4-pyrimidinyl]-1,4-diazepan-1-y1}-6-amino-3-pyridazinyl)phenol] were 500 to 5000 nM, 30 to 70%, 50 to 500 nM and “++ (++=30-70%)”.
In experiment [1], `Cc1nn2ccn(CC#Cc3nccc(N4CCCN(c5cc(-c6ccccc6O)nnc5N)CC4)n3)c(=O)c2c1C` [Compound P-115, 5-(3-(4-(4-(3-amino-6-(2-hydroxyphenyl)pyridazin-4-yl)-1,4-diazepan-1-yl)pyrimidin-2-yl)prop-2-yn-1-yl)-2,3-dimethylpyrazolo[1,5-a]pyrazin-4(5H)-one] yielded a 50% degradation concentration (DC50) of 50 to 500 nM and an inhibition at 1 µM of 30 to 70%. In experiment [2], the half-maximal degradation concentration (DC50) is 50 to 500 nM and the “SMARCA2 % Degradation @ 1 μM” value was “+++ (+++=>70%)”.
In experiment [1], `C[C@H]1CN(c2ccnc(C#CCn3cncn3)n2)CCN1c1cc(-c2ccccc2O)nnc1N` [Compound P-330, 0-{5-[(S)-2-methyl-4-{2-[3-(1H-1,2,4-triazol-1-yl)-1-propynyl]-4-pyrimidinyl}-1-piperazinyl]-6-amino-3-pyridazinyl} phenol] showed a DC50 of 50 to 500 nM and an inhibition at 1 µM of less than 30%. Further, in experiment [2], the DC50 lay within 50 to 500 nM and the “SMARCA2 % Degradation @ 1 μM” value is on record as “++ (++=30-70%)”.
Consider `CC(C)(C)OC(=O)NCC#Cc1nccc(N2CCCN(c3cc(-c4ccccc4O)nnc3N)CC2)n1` [Compound P-121, tert-butyl (3-(4-(4-(3-amino-6-(2-hydroxyphenyl)pyridazin-4-yl)-1,4-diazepan-1-yl)pyrimidin-2-yl)prop-2-yn-1-yl)carbamate], for which, in experiment [1], the 50% degradation concentration (DC50) was 50 to 500 nM and the inhibition at 1 µM was greater than 70%. In experiment [2], the 50% degradation concentration (DC50) lay in the range of 50 to 500 nM and the “SMARCA2 % Degradation @ 1 μM” value was “+++ (+++=>70%)”.
